These results are taken from paper PMC10228259 (Nature, 2023).

One may read the EC50 as the concentration at which the effect is half-maximal. High values mean lower potency in that assay, low ones higher potency in that assay. The term stoichiometry N denotes a count of units in the complex or per binding partner.

Series [1] has as its target T1, chemotactile receptor for terpenes 1 (CRT1) (Octopus bimaculoides, UniProt A0A0L8FVQ9).
T1 sequence (A0A0L8FVQ9 21-399): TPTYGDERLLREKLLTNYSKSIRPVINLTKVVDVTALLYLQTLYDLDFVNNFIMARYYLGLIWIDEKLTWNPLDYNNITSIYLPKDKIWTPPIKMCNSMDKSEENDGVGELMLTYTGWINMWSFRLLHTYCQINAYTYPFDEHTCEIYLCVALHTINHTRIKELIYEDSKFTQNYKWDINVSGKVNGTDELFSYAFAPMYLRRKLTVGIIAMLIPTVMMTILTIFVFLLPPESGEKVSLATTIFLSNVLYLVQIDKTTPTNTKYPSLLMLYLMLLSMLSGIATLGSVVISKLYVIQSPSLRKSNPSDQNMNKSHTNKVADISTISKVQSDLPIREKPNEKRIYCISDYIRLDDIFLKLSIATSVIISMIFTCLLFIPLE
Kind of series: patch clamp dose-response in HEK […] cells expressing CRT1. Format: cell-based.

Series [2] deals with T2, chemotactile receptor for terpenes 1 (CRT1, previously CR518) (Octopus bimaculoides, UniProt A0A0L8FVQ9).
T2 sequence (A0A0L8FVQ9 21-399): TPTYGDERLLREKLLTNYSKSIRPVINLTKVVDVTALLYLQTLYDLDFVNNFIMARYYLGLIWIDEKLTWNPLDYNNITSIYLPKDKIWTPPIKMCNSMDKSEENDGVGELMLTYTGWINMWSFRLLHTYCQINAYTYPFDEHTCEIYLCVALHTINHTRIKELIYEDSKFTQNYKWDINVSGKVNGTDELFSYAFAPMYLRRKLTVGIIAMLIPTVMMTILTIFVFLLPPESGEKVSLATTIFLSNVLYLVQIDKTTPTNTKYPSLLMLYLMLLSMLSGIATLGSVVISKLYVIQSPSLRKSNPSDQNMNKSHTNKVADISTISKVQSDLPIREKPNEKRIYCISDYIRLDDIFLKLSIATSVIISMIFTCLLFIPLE
Kind of series: cryo-EM structure at […] Å. Format: cell-based.

Series [3] addresses T1, chemotactile receptor for terpenes 1 (CRT1). Kind of series: patch clamp dose-response in HEK […] cells expressing CRT1. The series is classed as cell-based. This is another data set of the same source. (Patch clamp records ionic current or voltage across a cell membrane.)
The series “cryo-EM structure” concerns the molecule itself. Kind of series: cryo-EM structure.

Read-outs that look alike come from different tables or passages of the source.

Turning to `C[C@H]1CCCC(=O)CCC/C=C/c2cc(O)cc(O)c2C(=O)O1` [zearalenone], the EC50 in series [1] was 4.8 µM.

`C[C@@H]1CC[C@@]2(OC1)O[C@H]1C[C@H]3[C@@H]4CC=C5C[C@@H](OCCC(CO[C@@H]6O[C@H](CO)[C@@H](O[C@H]7O[C@H](CO)[C@@H](O)[C@H](O)[C@H]7O)[C@H](O)[C@H]6O)CO[C@@H]6O[C@H](CO)[C@@H](O[C@H]7O[C@H](CO)[C@@H](O)[C@H](O)[C@H]7O)[C@H](O)[C@H]6O)CC[C@]5(C)[C@H]4CC[C@]3(C)[C@H]1[C@@H]2C` [GDN, glyco-diosgenin] yielded an EC50 in series [2] of 0.125 µM. In other words, the sub-micromolar range.

With `C=C(C)[C@@H]1CCC2=CC(=O)C[C@@H](C)[C@]2(C)C1` [nootkatone], in series [3], it took 16.1 µM to reach a half-maximal effect (EC50). That is a double-digit micromolar value.

B1: chemotactile receptor for terpenes 1 (CRT1) (receptor, Octopus bimaculoides, UniProt A0A0L8FVQ9 21-399, looked up)
chain: TPTYGDERLLREKLLTNYSKSIRPVINLTKVVDVTALLYLQTLYDLDFVNNFIMARYYLGLIWIDEKLTWNPLDYNNITSIYLPKDKIWTPPIKMCNSMDKSEENDGVGELMLTYTGWINMWSFRLLHTYCQINAYTYPFDEHTCEIYLCVALHTINHTRIKELIYEDSKFTQNYKWDINVSGKVNGTDELFSYAFAPMYLRRKLTVGIIAMLIPTVMMTILTIFVFLLPPESGEKVSLATTIFLSNVLYLVQIDKTTPTNTKYPSLLMLYLMLLSMLSGIATLGSVVISKLYVIQSPSLRKSNPSDQNMNKSHTNKVADISTISKVQSDLPIREKPNEKRIYCISDYIRLDDIFLKLSIATSVIISMIFTCLLFIPLE
modifications: N-linked glycans
On to B1, for which the “stoichiometry N” value in the series “cryo-EM structure” came out at 5.
